Measured values from patent publication US20160038519A1, “ADMINISTRATION OF KARENITECIN FOR THE TREATMENT OF ADVANCED OVARIAN CANCER, INCLUDING CHEMOTHERAPY-RESISTANT AND/OR THE MUCINOUS ADENOCARCINOMA SUB-TYPES” (BioNumerik Pharmaceuticals, Inc., priority 2014, published 2016).
Read-outs that look alike come from different tables or passages of the source.

Tests used:
[1] = Toxicology study of single daily doses given orally and intravenously for five consecutive days; type: in vivo; conditions: oral and i.v. single daily doses
[2] = system: stage III/IV advanced epithelial ovarian cancer resistant or refractory to platinum- and taxane-based regimens; conditions: for CA-125 marker level, low: after reduction; for CA-125 marker level, high: before reduction
Description: Such Phase III clinical trial is sometimes referred to herein as the “Karenitecin Phase III Trial”.
The Primary Endpoint of the disclosed Karenitecin Phase III Trial was Progression Free Survival (“PFS”); which was defined as the time period from the date of randomization to the date of first radiographically-documented Progressive Disease (“PD”) or date of death due to any cause, taking the event date that occurs first. The date of PD was determined by radiographical objective disease (RECIST) measurement. The Secondary Endpoints of the disclosed Karenitecin Phase III Trial included: (i) Overall Survival (hereinafter “OS”), defined as the time from the date of randomization to the date of death due to any cause; (ii) Incidence of anemia, defined as the proportion of subjects who experience ≧grade 3 anemia based on National Cancer Institute Common Terminology Criteria for Adverse Events (NCI-CTCAE) criteria at any time post-baseline after receiving study treatment; (iii) Incidence of neutropenia (including febrile neutropenia), defined as the proportion of subjects who experience ≧grade 3 neutropenia based on NCI-CTCAE criteria at any time post-baseline after receiving study treatment; and (iv) Incidence of thrombocytopenia, defined as the proportion of subjects who experience ≧grade 3 thrombocytopenia based on NCI-CTCAE criteria at any time post-baseline after receiving study treatment.
Approximately 80 study centers participated in this clinical study. The primary endpoint was Progression Free Survival (PFS); defined as the time period from the date of randomization to the date of first radiographically documented progressive disease or disease progression (“PD”) or date of death due to any cause, taking the event date that occurs first.
The primary endpoint was Progression Free Survival (PFS); defined as the time period from the date of randomization to the date of first radiographically documented progressive disease (PD) or date of death due to any cause, taking the event date that occurs first. The date of PD was determined by radiographically objective disease (RECIST) measurement.
• Overall Survival (OS), defined as the time from the date of randomization to the date of death due to any cause. • Incidence of anemia, defined as the proportion of subjects who experience ≧grade 3 anemia based on National Cancer Institute Common Terminology Criteria for Adverse Events (NCI-CTCAE) criteria at any time post-baseline after receiving study treatment. • Incidence of neutropenia (including febrile neutropenia), defined as the proportion of subjects who experience ≧grade 3 neutropenia based on NCI-CTCAE criteria at any time post-baseline after receiving study treatment. • Incidence of thrombocytopenia, defined as the proportion of subjects who experience ≧grade 3 thrombocytopenia based on NCI-CTCAE criteria at any time post-baseline after receiving study treatment.
During this period, subjects received either Karenitecin (1.0 mg/m^2/day administered as a 60-minute intravenous infusion) or Topotecan (1.5 mg/m^2/day administered as a 30-minute intravenous infusion) daily for 5 consecutive days, every 21 days (one treatment cycle=21 days).

[3] = Adenocarcinoma (grade ≧2) not otherwise specified, P-value=0.3700
[4] = ECOG Performance Status 0, P-value=0.0249
[5] = ECOG Performance Status 2, P-value=0.7481
[6] = FIGO Stage IIIB, P-value=0.6225
[7] = FIGO Stage IV, first 254 PFS events, P-value=0.0260
[8] = Histological Stage: G1-well differentiated, P-value=0.8561
[9] = Histological Stage: G2-moderately differentiated, P-value=0.2982
[10] = Histopathology class: serous adenocarcinoma, P-value=0.2829
[11] = Mucinous adenocarcinoma subtype
[12] = Ovary as primary site of disease, P-value=0.2606
[13] = overall trial population, P-value=0.261

CC[C@@]1(O)C(=O)OCc2c1cc1n(c2=O)Cc2c-1nc1ccccc1c2CC[Si](C)(C)C [Karenitecin, (4S)-4-ethyl-4-hydroxy-11-[2-(trimethylsilyl)ethyl]-1H-pyrano[3′:4′:6,7]indolizino[1,2-b]quinoline-3,14(4H,12H)-dione]
Tolerability of oral doses [1]: good tolerability
Overall survival hazard ratio ([2]; Adenocarcinoma (grade ≧2) not otherwise specified, P-value 0.7893): 0.898
Median PFS advantage in favor of Karenitecin [2, 3]: 2.7 month
PFS Hazard Ratio [2, 3]: 0.684
PFS Hazard Ratio ([2]; Best response SD after 6 cycles in a first-line setting, P-value=0.9908): 0.992
Median PFS advantage in favor of Karenitecin ([2]; Best response stable disease (SD) after 6 cycles in a first-line setting, P-value=0.9908): 3 month
Median PFS advantage in favor of Karenitecin [2, 4]: 3.9 month
PFS Hazard Ratio [2, 4]: 0.662
Median PFS advantage in favor of Karenitecin [2, 5]: 1.5 month
PFS Hazard Ratio [2, 5]: 0.896
Median PFS advantage in favor of Karenitecin [2, 6]: 4.2 month
PFS Hazard Ratio [2, 6]: 0.722
Overall survival hazard ratio ([2]; FIGO Stage IV, P-value 0.4516): 0.892
Median PFS advantage in favor of Karenitecin ([2]; FIGO Stage IV, P-value=0.0556): 2.7 month
PFS Hazard Ratio ([2]; FIGO Stage IV, P-value=0.0556): 0.741
Median PFS advantage in favor of Karenitecin [2, 7]: 2.8 month
PFS Hazard Ratio [2, 7]: 0.669
Overall survival hazard ratio ([2]; Histological Stage: G1-well differentiated, P-value 0.9612): 0.9674
Median PFS advantage in favor of Karenitecin [2, 8]: 1.7 week
PFS Hazard Ratio [2, 8]: 0.904
Median PFS advantage in favor of Karenitecin [2, 9]: 2.5 month
PFS Hazard Ratio [2, 9]: 0.835
Overall survival hazard ratio ([2]; Histopathology Class: Undifferentiated carcinoma, P-value 0.6426): 0.701
Median PFS advantage in favor of Karenitecin (as compared with Topotecan) ([2]; Histopathology class: Mucinous adenocarcinoma): 2 month
Median PFS advantage in favor of Karenitecin [2, 10]: 1.6 month
PFS Hazard Ratio [2, 10]: 0.873
Median PFS [2, 11]: approximately 17.8 weeks
Overall survival (OS), third quartile [2, 11]: 35 months
Overall survival hazard ratio (Karenitecin vs Topotecan) ([2]; Mucinous adenocarcinoma subtype, P-value 0.7321): 0.841
Median PFS advantage in favor of Karenitecin [2, 12]: 6.5 week
PFS Hazard Ratio [2, 12]: 0.885
CA-125 marker level, low ([2]; another patient): 24 U/ML
CA-125 marker level, high ([2]; another patient): 237 U/ML
Reduction of grade 4 neutropenia in comparison to the Topotecan arm ([2]; female, human, in vivo): 38.2%
Reduction of number of grade 3 or 4 anemia events in comparison to the Topotecan arm ([2]; female, human, in vivo): 27.3%
Reduction of number of grade 3 or 4 thrombocytopenia events in comparison to the Topotecan arm ([2]; female, human, in vivo): 37.4%
Safety concerns noted by the independent DSMB ([2]; in vivo): no safety concerns
CA-125 marker level, high ([2]; one patient): 2072 U/ML
Median PFS ([2]; overall trial population, IRC-determined): approximately 24.3 weeks
Median PFS advantage in favor of Karenitecin (as compared with Topotecan) [2, 13]: greater than 6 week
PFS Hazard Ratio (Karenitecin vs Topotecan) [2, 13]: 0.885
Median PFS ([2]; refractory or resistant and/or mucinous subpopulation): approximately 26.9 weeks
PFS Hazard Ratio (Karenitecin vs Topotecan) ([2]; refractory or resistant and/or mucinous subpopulation, first 254 subjects, P-value=0.0849): 0.770
Median PFS in favor of Karenitecin (as compared with Topotecan) ([2]; refractory or resistant to platinum/taxane and/or mucinous sub-type subpopulation, first 254 subjects, P-value=0.0849): approximately 8.2 weeks
PFS Hazard Ratio ([2]; resistant subject sub-population, P-value=0.144): 0.822
CA-125 marker level, low ([2]; same patient): 167 U/ML
